This is an account of results in ChEMBL document CHEMBL1125066, “Phosphoramidate peptide inhibitors of human skin fibroblast collagenase” (J Med Chem, 1990).

The target of assay [1] is T1, Interstitial collagenase (Homo sapiens, UniProt P03956).
T1 sequence (P03956 whole entry): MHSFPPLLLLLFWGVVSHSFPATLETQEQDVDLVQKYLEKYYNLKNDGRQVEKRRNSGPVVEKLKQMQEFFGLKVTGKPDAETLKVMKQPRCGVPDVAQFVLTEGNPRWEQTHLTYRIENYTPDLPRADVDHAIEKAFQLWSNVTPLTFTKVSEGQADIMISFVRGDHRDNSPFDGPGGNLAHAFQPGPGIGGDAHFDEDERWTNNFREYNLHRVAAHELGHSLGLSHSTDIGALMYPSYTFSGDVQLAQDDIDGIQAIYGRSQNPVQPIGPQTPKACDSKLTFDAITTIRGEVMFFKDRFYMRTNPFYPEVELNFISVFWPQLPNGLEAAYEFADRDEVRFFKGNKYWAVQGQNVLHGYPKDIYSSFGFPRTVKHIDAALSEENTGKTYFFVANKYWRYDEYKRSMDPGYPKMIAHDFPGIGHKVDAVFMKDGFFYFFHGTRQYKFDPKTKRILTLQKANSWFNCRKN
The experiment in a line: Assayed against human skin fibroblast Collagenase using the spectrophotometric assay with the thiol ester substrate at pH 6.5.

The target of assay [2] is T1, Interstitial collagenase. Kind of assay: Inhibition of human skin fibroblast Collagenase at pH 7.5.
The target in the next assay is T2, Collagenase ColA (Bacteria, UniProt P43153).
T2 sequence (P43153 whole entry): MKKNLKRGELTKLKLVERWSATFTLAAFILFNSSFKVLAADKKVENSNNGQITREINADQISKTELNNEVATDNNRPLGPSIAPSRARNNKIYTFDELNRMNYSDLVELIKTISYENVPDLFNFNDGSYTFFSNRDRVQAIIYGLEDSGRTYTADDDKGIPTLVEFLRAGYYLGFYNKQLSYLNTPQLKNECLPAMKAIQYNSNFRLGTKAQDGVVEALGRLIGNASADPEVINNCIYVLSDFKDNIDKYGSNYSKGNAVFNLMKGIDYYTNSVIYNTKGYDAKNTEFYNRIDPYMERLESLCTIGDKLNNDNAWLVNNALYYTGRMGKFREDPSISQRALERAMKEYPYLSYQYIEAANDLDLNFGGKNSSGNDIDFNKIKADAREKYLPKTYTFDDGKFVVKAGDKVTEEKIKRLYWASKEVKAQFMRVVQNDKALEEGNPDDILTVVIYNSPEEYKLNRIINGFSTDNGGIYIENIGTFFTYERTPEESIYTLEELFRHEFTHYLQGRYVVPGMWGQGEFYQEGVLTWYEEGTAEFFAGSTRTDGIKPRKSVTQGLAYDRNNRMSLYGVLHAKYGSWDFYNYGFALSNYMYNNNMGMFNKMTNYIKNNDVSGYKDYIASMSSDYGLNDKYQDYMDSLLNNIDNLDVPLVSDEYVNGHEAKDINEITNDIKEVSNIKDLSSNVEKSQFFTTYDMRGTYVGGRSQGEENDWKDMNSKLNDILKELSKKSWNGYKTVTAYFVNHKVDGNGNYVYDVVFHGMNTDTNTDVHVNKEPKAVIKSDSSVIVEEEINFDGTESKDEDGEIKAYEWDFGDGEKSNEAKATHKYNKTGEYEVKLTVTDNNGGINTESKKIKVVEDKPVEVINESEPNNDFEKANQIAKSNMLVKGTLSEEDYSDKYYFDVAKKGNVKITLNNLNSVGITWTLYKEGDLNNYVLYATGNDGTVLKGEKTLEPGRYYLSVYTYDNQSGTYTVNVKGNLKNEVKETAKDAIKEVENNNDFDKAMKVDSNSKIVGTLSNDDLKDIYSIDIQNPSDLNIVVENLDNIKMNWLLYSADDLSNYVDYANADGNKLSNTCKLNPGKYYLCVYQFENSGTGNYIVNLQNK
The experiment in a line: Inhibition of bacterial Collagenase. Set-up: species or system Hathewaya histolytica.

For assay [3], the target named is T3, Angiotensin-converting enzyme (Oryctolagus cuniculus, UniProt P12822).
T3 sequence (P12822 whole entry): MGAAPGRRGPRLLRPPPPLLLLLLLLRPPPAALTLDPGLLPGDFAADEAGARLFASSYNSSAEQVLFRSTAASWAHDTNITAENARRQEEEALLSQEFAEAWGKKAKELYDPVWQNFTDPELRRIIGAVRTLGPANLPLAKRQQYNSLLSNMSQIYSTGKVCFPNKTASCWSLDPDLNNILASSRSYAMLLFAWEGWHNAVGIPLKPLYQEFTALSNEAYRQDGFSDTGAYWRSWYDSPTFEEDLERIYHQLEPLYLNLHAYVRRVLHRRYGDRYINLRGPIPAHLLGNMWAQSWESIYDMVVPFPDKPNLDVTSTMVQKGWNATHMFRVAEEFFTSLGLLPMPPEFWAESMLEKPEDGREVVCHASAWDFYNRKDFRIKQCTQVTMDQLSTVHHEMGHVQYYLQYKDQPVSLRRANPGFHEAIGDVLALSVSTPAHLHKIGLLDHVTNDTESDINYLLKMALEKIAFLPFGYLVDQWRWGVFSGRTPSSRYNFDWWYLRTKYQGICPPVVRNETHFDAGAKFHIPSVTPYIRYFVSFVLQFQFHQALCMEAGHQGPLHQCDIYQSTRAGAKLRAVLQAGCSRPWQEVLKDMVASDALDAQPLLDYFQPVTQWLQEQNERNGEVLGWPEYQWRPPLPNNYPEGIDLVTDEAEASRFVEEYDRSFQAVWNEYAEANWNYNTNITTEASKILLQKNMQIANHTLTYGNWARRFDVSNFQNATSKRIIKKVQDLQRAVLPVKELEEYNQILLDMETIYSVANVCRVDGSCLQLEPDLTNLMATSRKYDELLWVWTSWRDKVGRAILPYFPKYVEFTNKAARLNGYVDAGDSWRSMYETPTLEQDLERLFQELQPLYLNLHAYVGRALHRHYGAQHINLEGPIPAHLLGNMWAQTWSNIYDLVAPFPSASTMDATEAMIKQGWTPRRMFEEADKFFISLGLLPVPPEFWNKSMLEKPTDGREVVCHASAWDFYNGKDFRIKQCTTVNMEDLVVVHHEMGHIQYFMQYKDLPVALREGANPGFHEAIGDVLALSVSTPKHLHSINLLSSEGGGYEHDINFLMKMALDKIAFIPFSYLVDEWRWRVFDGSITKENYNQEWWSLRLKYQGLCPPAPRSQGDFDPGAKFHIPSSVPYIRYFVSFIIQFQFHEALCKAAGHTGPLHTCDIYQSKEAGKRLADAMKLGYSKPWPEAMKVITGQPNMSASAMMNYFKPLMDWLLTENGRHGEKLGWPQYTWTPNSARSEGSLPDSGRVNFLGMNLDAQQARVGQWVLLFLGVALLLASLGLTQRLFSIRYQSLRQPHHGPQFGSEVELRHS
Kind of assay: Inhibitory activity against Angiotensin I converting enzyme.

Square brackets hold non-standard residues; d marks the D form. Peptide text beside a SMILES is read from it. * marks the point of attachment. Arg(NO2) = N=C(NCCC[C@H](N)C(=O)O)N[N+](=O)[O-]; X1 = CCOP(=O)(O)N[C@H](C(=O)*)[C@@H](C)CC

Regarding `CCOP(=O)(O)N[C@H](C(=O)NC(Cc1ccc(OC)cc1)C(=O)NC)[C@@H](C)CC` (some centres undefined), affinity at Interstitial collagenase [1] was put at a Ki of 31 µM.

In the case of `CCOP(=O)(O)N[C@H](C(=O)NC(Cc1c[nH]c2ccccc12)C(=O)NC)[C@@H](C)CC` (some centres undefined), the Ki at Interstitial collagenase [2] is 0.9 µM; on Collagenase ColA it was above 5000 µM; on Interstitial collagenase [1], 1.5 µM.

Take `CCOP(=O)(O)N[C@H](C(=O)NC(Cc1ccc(OCc2ccccc2)cc1)C(=O)NC)[C@@H](C)CC` (some centres undefined): the Ki at Interstitial collagenase [1] was determined as 18 µM.

As for `CCOP(=O)(O)N[C@H](C(=O)NC(Cc1ccc(OCc2ccccc2)cc1)C(=O)NCC(=O)O)[C@@H](C)CC` (some centres undefined), the Ki is above 5 µM at Collagenase ColA, 6.7 µM at Interstitial collagenase [1] and 0.2 µM in assay [3].

On Interstitial collagenase [1], `CCOP(=O)(O)N[C@H](C(=O)N[C@@H](Cc1ccc(OCC(=O)NCc2ccccc2)cc1)C(=O)NCC(=O)O)[C@@H](C)CC` returned a Ki of 16 µM.

As for `CCOP(=O)(O)N[C@H](C(=O)N[C@@H](Cc1ccc(OCc2cc(Cl)cc(Cl)c2)cc1)C(=O)NCC(=O)O)[C@@H](C)CC`, the Ki amounted to 13 µM at Interstitial collagenase [2] and 5.7 µM on Interstitial collagenase [1].

At Interstitial collagenase [1], `CCOP(=O)(O)N[C@H](C(=O)NC(Cc1ccc(OC2CCCCO2)cc1)C(=O)NCC(=O)O)[C@@H](C)CC` (some centres undefined) registered an inhibitory constant (Ki) of 25 µM.

`CCOP(=O)(O)N[C@H](C(=O)N[C@@H](Cc1ccc(OCC(=O)O)cc1)C(=O)NCC(=O)O)[C@@H](C)CC` gave a Ki on Interstitial collagenase [1] of 32 µM.

`CCOP(=O)(O)N[C@H](C(=O)N[C@@H](Cc1ccc(OCC(=O)N[C@@H](CCCCN)C(=O)O)cc1)C(=O)NCC(=O)O)[C@@H](C)CC`: on Interstitial collagenase [1], the affinity, expressed as Ki, was 50 µM.

`CCOP(=O)(O)N[C@H](C(=O)N[C@@H](Cc1ccc(OCC(=O)N(Cc2ccccc2)Cc2ccccc2)cc1)C(=O)NCC(=O)O)[C@@H](C)CC`: on Interstitial collagenase [1], the Ki came out at 27 µM.

`CCOP(=O)(O)N[C@H](C(=O)N[C@@H](Cc1ccc(OCc2ccccc2)cc1)C(=O)N[C@@H](Cc1ccccc1)C(=O)O)[C@@H](C)CC` showed a Ki at Interstitial collagenase [1] of 120 µM.

At Interstitial collagenase [1], `CCOP(=O)(O)N[C@H](C(=O)N[C@@H](Cc1ccc(O)cc1)C(=O)NCC(=O)O)[C@@H](C)CC` had an inhibitory constant (Ki) of 22 µM.

For the compound `CCOP(=O)(O)N[C@H](C(=O)N[C@@H](Cc1c[nH]c2ccccc12)C(=O)NCC(=O)O)[C@@H](C)CC`, on Interstitial collagenase [1], affinity was put at a Ki of 13 µM.

For `CCOP(=O)(O)N[C@H](C(=O)N[C@@H](C)C(=O)NCC(=O)O)[C@@H](C)CC`, the Ki on Interstitial collagenase [2] stood at 147 µM; at Interstitial collagenase [1], 130 µM.

For `CCOP(=O)(O)N[C@@H](CC(C)C)C(=O)N[C@@H](C)C(=O)NCC(=O)O`, the affinity on Interstitial collagenase [1], expressed as Ki, was 140 µM.

For the compound `CCOP(=O)(O)N[C@H](C(=O)N[C@@H](CC(C)C)C(=O)NCC(=O)O)[C@@H](C)CC`, the affinity at Interstitial collagenase [1] corresponds to a Ki of 49 µM.

Take `CCOP(=O)(O)N[C@H](C(=O)N[C@@H](C)C(=O)NCC(=O)N[C@@H](CC(C)C)C(=O)O)[C@@H](C)CC`: the Ki at Interstitial collagenase [1] came out at 240 µM.

On Interstitial collagenase [1], `CCOP(=O)(O)N[C@H](C(=O)N[C@@H](Cc1ccccc1)C(=O)NCC(=O)O)[C@@H](C)CC` yielded a Ki of 29 µM.

On Interstitial collagenase [1], `CCOP(=O)(O)N[C@H](C(=O)N[C@@H](Cc1ccc(N)cc1)C(=O)NCC(=O)O)[C@@H](C)CC` registered a Ki of 19 µM.

Turning to `CCOP(=O)(O)N[C@H](C(=O)N[C@@H](C)C(=O)NCC(=O)N[C@@H](CCC(=O)O)C(=O)N[C@@H](CCCN=C(N)N)C(=O)NCC(=O)O)[C@@H](C)CC` (X1-AGERG-OH), the Ki on Interstitial collagenase [1] was 403 µM.

`CCOP(=O)(O)N[C@H](C(=O)N[C@@H](C)C(=O)NCC(=O)N[C@@H](CCC(=O)O)C(=O)N[C@@H](CCCNC(=N)N[N+](=O)[O-])C(=O)NCC(=O)O)[C@@H](C)CC` (X1-AGE[Arg(NO2)]G-OH) yielded a Ki at Interstitial collagenase [1] of 270 µM.

At Interstitial collagenase [1], `CCOP(=O)(O)N[C@H](C(=O)N[C@@H](C)C(=O)NCC(=O)N[C@@H](CCC(N)=O)C(=O)N[C@@H](CCCNC(=N)N)C(=O)NCC(=O)O)[C@@H](C)CC` (X1-AGQRG-OH) gave a Ki of 460 µM.

Take `CCOP(=O)(O)N[C@H](C(=O)N[C@@H](C)C(=O)NCC(=O)N[C@@H](CCC(N)=O)C(=O)N[C@@H](CCCNC(=N)N[N+](=O)[O-])C(=O)O)[C@@H](C)CC` (X1-AGQ[Arg(NO2)]-OH): at Interstitial collagenase [1], the Ki came out at 1900 µM.
